Assay results: patent US20220288004A1, “TREATMENT AND PREVENTION OF AGING RELATED-DISEASE AND/OR AGING BY THE INHIBITION OF SPHINGOLIPIDS” (ECOLE POLYTECHNIQUE FEDERALE DE LAUSANNE (EPFL), priority 2019, published 2022)

Columns and labels:
aged C57Bl/6JRj mice = assay: Ad libitum locomotion during 10 min in aged mice; assay type: in vivo, mouse; conditions: myriocin 0.4 mg/kg i.p. 3 times per week, 5 months
Description: FIG. 9. Sphingolipid depletion protects against frailty phenotypes. (a) Distance moved in 10 mins. (b) Average velocity during 10 minutes of observation. (c) Glucose tolerance test. (d) Time exploring familiar and novel objects. (e) Recognition index. Aged (18-month-old) C57BL/6JRj mice were treated with intraperitoneal injections of myriocin (MYR) for 5 months @ 0.4 mg/kg/3 times per week.
Human frailty syndrome is characterized by weakness, decreased walking speed, exhaustion, weight loss, and low physical activity. […] Frailty predicts falls in older people. […] In object recognition test, myriocin treated mice spent more exploring both the familiar object and novel object as compared to their DMSO treated counterparts (FIG. 9d). Although this could be partly attributable to the higher physical activity of myriocin treated mice, the treated mice were more interested in the novel than familiar object as compared to untreated mice.

[1] = tested on: APPSwe-expressing C2C12 myoblasts; assay: Proteostat staining of APPSwe-expressing C2C12 myoblasts; assay type: cell-based, mouse; conditions: 30 μM MYR for 24 h
Description: FIG. 16. Quantitative Proteostat signal normalized over the number of cells in human primary myoblasts from IBM donors (above) and APPSwe-expressing C2C12 myoblasts (below) decreases after treatment with 30 μM MYR for 24 h. Values are expressed as mean±s.e.m. ***P:0.001; ****P:0.0001. Differences between two groups were assessed using Student's two-tailed t-tests (error bars: 95% confidence intervals).

CCCCCCC(=O)CCCCCCC=CCC(O)C(O)C(N)(CO)C(=O)O (stereo not drawn) [myriocin, 2-Amino-3,4-dihydroxy-2-(hydroxymethyl)-14-oxoicos-6-enoic acid]
ad libitum walking speed (average velocity during 10 minutes) (aged C57Bl/6JRj mice): increased
distance travelled ad libitum during 10 min (aged C57Bl/6JRj mice): longer
Proteostat signal normalized over the number of cells [1]: decreases
